US9840481B2, “Allosteric modulators of nicotinic acetylcholine receptors” (MERCK SHARP & DOHME CORP., priority 2016, dated 2017)
Read-outs that look alike come from different tables or passages of the source.

Molecular target: T1, human α7 nAChR stably expressed in a HEK cell line (with human RIC-3) (Homo sapiens, UniProt P36544)
T1 construct: PrecisION hnAChR α7/RIC-3
Assay: Automated patch-clamp electrophysiology functional assay (Assay A), IonFlux HT, whole-cell population patch
Assay type: cell-based
Description: The α7 nAChR positive allosteric modulator (PAM) activity of the present compounds may be tested using assays known in the art. The α7 nAChR PAMs described herein have activities in an automated patch-clamp electrophysiology functional assay as described in the examples. The assay was performed using the IonFlux HT in a whole-cell, population patch configuration. See Golden et al. Assay Drug Dev. Technol. (2011) 9:608-619. The compounds were assessed for their ability to modulate the function of the human α7 nAChR stably expressed in a HEK cell line both in the presence, and in the absence of the natural α7 agonist acetylcholine. By performing a series of such measurements at different concentrations, the effective concentration of the α7 nAChR PAMs (EC50) was determined. See Spencer et al. Assay Drug Dev. Technol. (2012) 10:313-324.
Direct activation of α7 (agonism), and potentiation of 5 acetylcholine-evoked α7 currents was determined as follows:
Automated Patch-Clamp Electrophysiology Functional Assay (Assay A)
Automated patch-clamp electrophysiology was performed using the IonFlux HT (Fluxion Biosciences Inc., San Francisco, Calif.) in the whole-cell, population patch configuration. Test compounds were assessed for their ability to modulate the function of the α7 nicotinic acetylcholine receptor both in the presence, and in the absence of the natural α7 agonist acetylcholine. A HEK cell line stably expressing both human RIC-3 and human α7 (PrecisION hnAChR α7/RIC-3, Eurofins Pharma, St. Charles, Mo.) was cultured in 175 cm^2 triple-layer tissue culture flasks to no more than 90% confluency in DMEM/F-12 growth media supplemented with 10% heat-inactivated fetal bovine serum, 1% non-essential amino acids, 0.625 μg/mL Puromycin, and 400 μg/mL Geneticin. Immediately prior to assay, cells were detached by first aspirating growth media, rinsing with Dulbecco's phosphate buffered saline, and then adding 10 mL of Accutase (Innovative Cell Technologies, San Diego, Calif.) to the flask and then incubating at 37° C. for 5 minutes. Detached cells were then recovered by the addition of 40 mL of CHO-serum-free media supplemented with 25 mM HEPES, and rocked gently in a 50 mL conical tube for 20 minutes prior to patch-clamp assay. After recovery, cells were pelleted by centrifugation at 1,000 RPM for 1 minute in a compact bench top centrifuge; recovery media was aspirated and cells were resuspended in external recording solution (150 mM NaCl, 5 mM KCl, 2 mM CaCl2, 1 mM MgCl2, 10 mM HEPES, 12 mM dextrose) to a density of 5.0×10^6 cells/mL. The cell suspension was added to the cell inlet wells on an IonFlux HT population patch plate which had previously been rinsed and primed with deionized H2O. Test compounds were serially diluted in DMSO and then resuspended to the final test concentration in external recording solution, with, or without […] acetylcholine added to the external recording solution; test compounds were then transferred to the IonFlux HT population patch plate. Internal recording solution (110 mM TrisPO4, 28 mM TrisBase, 0.1 mM CaCl2, 2 mM MgCl2, 11 mM EGTA, 4 mM MgATP) was added to the internal recording solution inlet wells on the IonFlux HT patch plate previously loaded with cells and test compounds, and the plate loaded into the IonFlux HT instrument. A protocol was executed on the IonFlux HT to trap the cells, break into the cells, and establish the whole-cell recording configuration; cells were voltage-clamped at a holding potential of −60 mV for the duration of the experiment, all experiments were conducted at room temperature, and the IonFlux HT injection pressure was 8 psi for solution applications. Upon establishing the whole-cell configuration, external recording solution was perfused into the recording chambers for 120 seconds and then 40 μM acetylcholine was applied for 1 second and immediately washed off with external recording solution for 60 seconds. […]

[1] = automated patch-clamp electrophysiology functional assay (Assay A), potency class by EC50, read-out: α7 nAChR Potency
[2] = electrophysiology EC50, HEK cells expressing human α7/RIC-3, 40 μM acetylcholine, holding potential −60 mV, room temperature, read-out: α7 nAChR EC50

T1 sequence (P36544 23-502): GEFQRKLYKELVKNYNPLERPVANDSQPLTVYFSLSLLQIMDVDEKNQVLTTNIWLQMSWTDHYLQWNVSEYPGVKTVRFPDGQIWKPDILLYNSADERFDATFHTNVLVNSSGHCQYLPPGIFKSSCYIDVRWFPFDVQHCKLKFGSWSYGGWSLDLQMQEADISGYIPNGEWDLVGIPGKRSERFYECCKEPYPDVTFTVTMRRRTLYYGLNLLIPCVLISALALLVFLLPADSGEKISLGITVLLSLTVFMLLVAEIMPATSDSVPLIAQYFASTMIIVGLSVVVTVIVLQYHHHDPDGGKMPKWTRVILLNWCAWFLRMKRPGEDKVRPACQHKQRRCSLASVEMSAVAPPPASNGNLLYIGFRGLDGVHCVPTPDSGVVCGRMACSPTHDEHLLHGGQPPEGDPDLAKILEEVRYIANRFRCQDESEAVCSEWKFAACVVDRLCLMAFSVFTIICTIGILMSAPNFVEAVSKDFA

Row | SMILES | EC50 [1] [µM] | EC50 [2] [µM]
1 | CC1(C)[C@H](c2ccc(S(N)(=O)=O)cc2)[C@H]1c1cc(-c2ccccc2)no1 [Example 11, 4-[(1R,3R)-2,2-Dimethyl-3-(3-phenylisoxazol-5-yl)cyclopropyl]benzenesulfonamide] | 0.1 to 0.5 | 0.46
2 | CC1(C)[C@@H](c2ccc(S(N)(=O)=O)cc2)[C@@H]1c1noc(-c2c(F)cc(F)cc2F)n1 [Example H3] | 0.1 to 0.5 | 0.13
3 | C#Cc1ccc(-c2nc([C@H]3[C@H](c4ccc(S(N)(=O)=O)cc4)C3(C)C)no2)cc1 [Example H11] | 0.5 to 5 | 1.9
4 | CC1(C)[C@@H](c2ccc(S(N)(=O)=O)cc2)[C@@H]1c1ncc(C2CCCC2)o1 [Example K14] | 0.5 to 5 | 
5 | NS(=O)(=O)c1ccc([C@@H]2C[C@H]2c2cnc(-c3ccccc3)o2)cc1 [Example L3] | 0.5 to 5 | 
6 | CC1(C)[C@@H](c2ccc(S(N)(=O)=O)cc2)[C@@H]1c1nnc(CC2CC2)o1 [Example G11] | 0.5 to 5 | 4.5
7 | CC1(C)[C@H](c2ccc(S(N)(=O)=O)cc2)[C@H]1c1nc(-c2c(F)cccc2F)no1 [Example A11] | 0.5 to 5 | 0.96
8 | CCc1coc([C@H]2[C@H](c3ccc(S(N)(=O)=O)cc3)C2(C)C)n1 [Example K8] | 0.5 to 5 | 0.54
9 | NS(=O)(=O)c1ccc([C@@H]2C[C@H]2c2cn(-c3cccc(F)c3)nn2)cc1 [Example 26, 4-{(1R,2R)-2-[1-(3-Fluorophenyl)-1H-1,2,3-triazol-4-yl]cyclopropyl}benzenesulfonamide] | 0.5 to 5 | 1.6
10 | NS(=O)(=O)c1ccc([C@H]2C[C@@H]2c2nc(-c3cncc(F)c3)no2)cc1 [Example B5] | 5 to 50 | 
11 | NS(=O)(=O)c1ccc([C@@H]2C[C@H]2c2csc(-c3ccccc3)n2)cc1 [Example 25, 4-[(1R,2R)-2-(2-Phenyl-1,3-thiazol-4-yl)cyclopropyl]benzenesulfonamide] | 0.5 to 5 | 0.98
12 | CC1(C)[C@@H](c2ccc(S(N)(=O)=O)cc2)[C@@H]1c1noc(C2CCCC2)n1 [Example I26] | ≤ 0.1 | 0.064
13 | NS(=O)(=O)c1ccc([C@@H]2C[C@H]2c2noc(-c3cncc(F)c3)n2)cc1 [Example I36] | 0.5 to 5 | 1.4
14 | NS(=O)(=O)c1ccc([C@@H]2C[C@H]2c2cnc(C3CCCC3)o2)cc1 [Example L21] | 0.5 to 5 | 
15 | CC1(C)[C@@H](c2ccc(S(N)(=O)=O)cc2)[C@@H]1c1noc(-c2cnc(SCC(F)(F)F)o2)n1 [Example I18] | 0.5 to 5 | 1.3
16 | CC1(C)C(c2ccc(S(N)(=O)=O)cc2)C1c1cc(C2CCCC2)on1 (stereo not drawn) [Example 34, 4-(trans-3-(5-Cyclopentylisoxazol-3-yl)-2,2-dimethylcyclopropyl)benzenesulfonamide] | 0.1 to 0.5 | 0.16
17 | CC1(C)[C@@H](c2ccc(S(N)(=O)=O)cc2)[C@@H]1c1noc(C2CCC(O)CC2)n1 (some centres unmarked) [Example I29] | 5 to 50 | 6.8
18 | CC(C)c1noc([C@H]2[C@H](c3ccc(S(N)(=O)=O)cc3)C2(C)C)n1 [Example D5] | 0.1 to 0.5 | 0.42
19 | CC(C)(C)c1coc([C@H]2[C@H](c3ccc(S(N)(=O)=O)cc3)C2(C)C)n1 [Example K7] | 0.5 to 5 | 0.62
20 | CC1(C)[C@H](c2ccc(S(N)(=O)=O)cc2)[C@H]1c1nc(C2CC(F)(F)C2)no1 [Example B8] | 0.5 to 5 | 
21 | NS(=O)(=O)c1ccc([C@@H]2C[C@H]2c2nc(-c3ccccc3)c[nH]2)cc1 [Example K12] | 5 to 50 | 
22 | NS(=O)(=O)c1ccc([C@@H]2C[C@H]2c2nc(-c3cc(F)ccc3C(F)(F)F)no2)cc1 [Example C8] | 0.1 to 0.5 | 0.5

Row | SMILES | EC50 [1] [µM] | EC50 [2] [µM]
23 | CC1(C)C(c2ccc(S(N)(=O)=O)cc2)C1c1noc(C2CC3CN(C4CCCC4)C(=O)C3C2)n1 (centres unmarked) [Example I24] | 0.5 to 5 | 4.4
24 | NS(=O)(=O)c1ccc([C@H]2C[C@@H]2c2nc(C3CCCCC3)no2)cc1 [Example B4] | 0.5 to 5 | 
25 | NS(=O)(=O)c1ccc([C@@H]2C[C@H]2c2nc(-c3c(F)cccc3F)no2)cc1 [Example C9] | 0.5 to 5 | 
26 | CC1(C)[C@@H](c2ccc(S(N)(=O)=O)cc2)[C@@H]1c1nc(-c2ccccc2F)co1 [Example K1] | 0.1 to 0.5 | 
27 | CC1(C)[C@H](c2ccc(S(N)(=O)=O)cc2)[C@H]1c1nc(-c2ccc(F)cc2F)co1 [Example J2] | 0.5 to 5 | 0.73
28 | COc1ccc(Cl)cc1-c1noc([C@@H]2C[C@H]2c2ccc(S(N)(=O)=O)cc2)n1 [Example 19, 4-{(1R,2R)-2-[3-(5-Chloro-2-methoxyphenyl)-1,2,4-oxadiazol-5-yl]cyclopropyl}benzenesulfonamide] | 0.5 to 5 | 0.78
29 | CC1(C)[C@@H](c2ccc(S(N)(=O)=O)cc2)[C@@H]1c1noc(-c2cccc3c2OCC(=O)N3)n1 [Example I31] | 0.5 to 5 | 
30 | CC1(C)[C@@H](c2ccc(S(N)(=O)=O)cc2)[C@@H]1c1noc(-c2c(F)cccc2F)n1 [Example H8] | 0.1 to 0.5 | 0.11
31 | CC1(C)[C@@H](c2ccc(S(N)(=O)=O)cc2)[C@@H]1c1nnc(-c2cccc(F)c2)o1 [Example G3] | 0.5 to 5 | 0.74
32 | NS(=O)(=O)c1ccc([C@H]2C[C@@H]2c2nc(-c3ccccc3)no2)cc1 [Example A5] | 5 to 50 | 7.3
33 | CC1(C)[C@@H](c2ccc(S(N)(=O)=O)cc2)[C@@H]1c1noc(-c2ccc(F)c(OC(F)(F)F)c2)n1 [Example H4] | 0.5 to 5 | 
34 | CC1(C)[C@H](c2ccc(S(N)(=O)=O)cc2)[C@H]1c1nc(-c2cc(F)ccc2F)co1 [Example J3] | 0.5 to 5 | 
35 | CC1(C)[C@@H](c2ccc(S(N)(=O)=O)cc2)[C@@H]1c1nnc(C2CCCC2)o1 [Example G10] | 0.5 to 5 | 0.63
36 | CC1C(c2ccc(S(N)(=O)=O)cc2)C1c1nc(-c2ccccc2)no1 (single isomer, unassigned; diastereomer 4) [Example 22, 4-(2-Methyl-3-(3-phenyl-1,2,4-oxadiazol-5-yl)cyclopropyl)benzenesulfonamide, diastereomer 4] | 0.1 to 0.5 | 0.12
37 | CC1(C)[C@H](c2ccc(S(N)(=O)=O)cc2)[C@H]1c1nnc(-c2c(F)cccc2F)o1 [Example F1] | 0.5 to 5 | 
38 | NS(=O)(=O)c1ccc([C@@H]2C[C@H]2c2nc(-c3ccccc3)no2)cc1 [Example C5] | 0.1 to 0.5 | 0.12
39 | CC1(C)[C@H](c2ccc(S(N)(=O)=O)cc2)[C@H]1c1noc(-c2ccccc2)n1 [Example L17] | 0.1 to 0.5 | 
40 | NS(=O)(=O)c1ccc([C@@H]2C[C@H]2c2nc(-c3cnccc3C(F)(F)F)no2)cc1 [Example D22] | 0.5 to 5 | 
41 | NS(=O)(=O)c1ccc([C@@H]2C[C@H]2c2nc(-c3ccccc3)co2)cc1 [Example 9, 4-[(1R,2R)-2-(4-Phenyl-1,3-oxazol-2-yl)cyclopropyl]benzenesulfonamide] | 0.1 to 0.5 | 0.43
42 | CC(C)c1nsc(C2CC2c2ccc(S(N)(=O)=O)cc2)n1 (single isomer, unassigned; enantiomer b) [Example 18, 4-{trans-2-[3-(Propan-2-yl)-1,2,4-thiadiazol-5-yl]cyclopropyl}benzenesulfonamide, enantiomer B] | 0.1 to 0.5 | 0.38
43 | NS(=O)(=O)c1ccc([C@H]2C[C@@H]2c2cnc(-c3ccccc3)o2)cc1 [Example L2] | 0.5 to 5 | 4.8
